Source: patent US20040086942A1, “Ige receptor antagonists” (priority 2003, published 2004)
Read-outs that look alike come from different tables or passages of the source. Where a SMILES comes first, the peptide text is derived from it. Bridges are numbered along the chain shown (N, C = ends). [ ]: non-standard residue; d: D form.

Assays:
[1] = molecular target: T1, alpha subunit of the human FcεRI receptor (Homo sapiens, UniProt P12319); experiment: cell-based 125I-IgE binding inhibition assay on CHO FcεRI+ cells; conditions: for fold reduction in inhibition/binding: truncations and alanine substitutions of IGE063
T1 construct: expressed in transfected cells; host or cells: Chinese hamster ovary (CHO FcεRI+) cells
T1 sequence (P12319 26-257): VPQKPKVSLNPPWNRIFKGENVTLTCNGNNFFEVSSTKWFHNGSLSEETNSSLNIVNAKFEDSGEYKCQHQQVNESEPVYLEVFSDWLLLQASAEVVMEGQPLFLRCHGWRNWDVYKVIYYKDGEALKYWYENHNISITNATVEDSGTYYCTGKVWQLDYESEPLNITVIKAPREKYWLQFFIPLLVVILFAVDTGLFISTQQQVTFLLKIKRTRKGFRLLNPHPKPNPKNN
Protocol: . The following day the cells were rinsed three times with PBS and then once with F12/DMEM. Peptide stocks were reconstituted in 100 mM Hepes buffered water, pH 7.2, at a concentration of 5 mg/mL. Working concentrations of the peptide were diluted in assay buffer (see below). 75 ul, of a desired concentration of peptide was added to the top row of a separate 96 well microtiter plate and serially diluted 1:3 in 50 uL of the assay buffer (F12/DMEM, 1% BSA, 0.05% NaN3 and […] Hepes pH 7.2). Starting concentrations ranged from 50-500 uM. Next, 50 uL of the diluted peptide was transferred to the 96 microtiter well plate containing a monolayer of CHO FcεRI+ cells. After a 1 hour incubation at room temperature, 50 uL of ^125I-IgE (1.5 nM) was added to each well and incubated for an additional 45-60 minutes at 4° C. followed by 5 washes with 200 uL of assay buffer. Cells were solubilized with 200 uL of 1 N NaOH and transferred to a 96 microtiter tube for counting in a gamma counter to determine counts bound. The data were plotted using KaleidaGraph 3.0 and fitted using 4-parameter fits. IC50 values were determined for each peptide.
Six peptides based on selected clones from library #516 were synthesized and assayed for the ability to inhibit the binding of ^125I-IgE to a Chinese hamster ovary cell line expressing the alpha subunit of the IgE high affinity receptor, FcεRI. The peptides were synthesized as nine residue monomers and oxidized to allow the formation of a disulfide bridge resulting in a cyclic peptide. The size of each peptide was confirmed by mass spectrometry.

[2] = 2D NMR structural score versus reference peptide; assay type: physicochemical; parameters: key to Struct. Score: +++ indicates the peptide is structured similarly to IGE063 (SEQ ID NO:49); + indicates the peptide is structured similarly to IGE063 (SEQ ID NO:49), but is less stable; −/+ indicates the peptide has some elements of stable structure, but the conformation differs from the reference structure (e.g., a different turn type is evident); − indicates the peptide is predominantly unstructured in aqueous solution; key to Structure Score: +++, peptide structurally similar to reference; +, structurally similar to reference but significantly less stable; +/−, peptide has some elements of stable structure, but the conformation differs from the reference structure; −, peptide is predominantly unstructured; *peptide IGE037 (SEQ ID NO:128) was initially unstructured (monomeric form), but became structured after spontaneous dimer formation; conditions: for Struct. Score: reference IGE063; for Structure Score: reference IGE134
Protocol: Peptides were evaluated by 2D NMR spectroscopy to assess the effect of substitutions on the three-dimensional structure of the peptide analog. All peptides with a structural score indicated in Table 5 were analyzed by 2D NMR spectroscopy; backbone ^1H resonances were assigned and ^3JHN-Hα coupling constants were measured and compared to the reference peptide (IGE063, SEQ ID NO:49; see Example 5). Peptides are defined to be of similar structure to the reference peptide provided chemical shifts, coupling constants, and NOEs are consistent with that structure.
A structural score was assigned to peptides analyzed by 2D NMR spectroscopy. For each of these peptides, backbone ^1H resonances have been assigned, and the ^3JHN-Ha coupling constants have been measured and compared to the reference peptide (i.e., IGE134 (SEQ ID NOS:155, 171)). Peptides are defined to be of similar structure to the reference peptide provided. chemical shifts, coupling constants, and NOEs are consistent with that structure.

[3] = inhibition of labeled IgE-binding to CHO FcεRI+ cells, read-out: Mean IC50(uM) ± S.D.
[4] = IGE037: initially, read-out: IC50

| Compound | IC50 [1, 3] | Struct. Score [2] | IC50 [1, 4] | fold reduction in inhibition/binding [1] | Structure Score [2] |
| --- | --- | --- | --- | --- | --- |
| CSCC[C@H](NC(=O)[C@@H]1CSSC[C@H](NC(=O)[C@H](CCCNC(=N)N)NC(=O)[C@@H]2CCCN2C(=O)[C@H](CC(C)C)NC(=O)[C@H](CC(N)=O)NC(C)=O)C(=O)N[C@@H]([C@@H](C)O)C(=O)N[C@@H](CCC(=O)O)C(=O)NCC(=O)N2CCC[C@H]2C(=O)N[C@@H](Cc2c[nH]c3ccccc23)C(=O)NCC(=O)N[C@@H](Cc2c[nH]c3ccccc23)C(=O)N[C@@H](C(C)C)C(=O)N1)C(=O)N[C@@H](C)C(=O)N[C@@H](CC(=O)O)C(=O)N[C@@H](CC(=O)O)C(N)=O [IGE031, Ac-NLPRCTEGPWGWVCMADD-nh2] (Ac-NLPRCTEGPWGWVCMADD-NH2; disulfide 5-14) | 1.1 ± 0.7 µM | +++ |  |  |  |
| CC(=O)N[C@@H](C)C(=O)N[C@@H](CC(C)C)C(=O)N[C@H]1CSSC[C@@H](C(=O)N[C@@H](Cc2ccc(O)cc2)C(=O)N[C@H](C(N)=O)C(C)C)NC(=O)[C@H](C(C)C)NC(=O)[C@H](C)NC(=O)[C@@H]2CCCN2C1=O [IGE038, Ac-ALCPAVCYV-nh2] (Ac-ALCPAVCYV-NH2; disulfide 3-7) |  |  | > 500 µM |  | − |
| CSCC[C@H](NC(=O)[C@@H]1CSSC[C@H](NC(=O)[C@H](CCCNC(=N)N)NC(=O)[C@@H]2CCCN2C(=O)[C@H](CC(C)C)NC(=O)[C@@H](N)CC(N)=O)C(=O)N[C@@H]([C@@H](C)O)C(=O)N[C@@H](CCC(=O)O)C(=O)NCC(=O)N2CCC[C@H]2C(=O)N[C@@H](Cc2c[nH]c3ccccc23)C(=O)NCC(=O)N[C@@H](Cc2c[nH]c3ccccc23)C(=O)N[C@@H](C(C)C)C(=O)N1)C(=O)O [IGE062, NLPRCTEGPWGWVCM] (H-NLPRCTEGPWGWVCM-OH; disulfide 5-14; N-terminus and C-terminus assumed) | 1 ± 0.6 µM | +++ |  |  |  |
| CSCC[C@H](NC(=O)[C@@H]1CSSC[C@H](NC(=O)[C@H](CCCNC(=N)N)NC(=O)[C@@H]2CCCN2C(=O)[C@H](CC(C)C)NC(=O)[C@H](CC(N)=O)NC(C)=O)C(=O)N[C@@H]([C@@H](C)O)C(=O)N[C@@H](CCC(=O)O)C(=O)NCC(=O)N2CCC[C@H]2C(=O)N[C@@H](Cc2c[nH]c3ccccc23)C(=O)NCC(=O)N[C@@H](Cc2c[nH]c3ccccc23)C(=O)N[C@@H](C(C)C)C(=O)N1)C(=O)O [IGE063, Ac-NLPRCTEGPWGWVCM] (Ac-NLPRCTEGPWGWVCM-OH; disulfide 5-14) | 1.8 ± 0.7 µM | +++ | ~1 µM |  |  |
| CSCC[C@H](NC(=O)[C@@H]1CSSC[C@H](NC(=O)[C@H](CCCNC(=N)N)NC(=O)[C@@H]2CCCN2C(=O)[C@H](CC(C)C)NC(=O)[C@@H](N)CC(N)=O)C(=O)N[C@@H]([C@@H](C)O)C(=O)N[C@@H](CCC(=O)O)C(=O)NCC(=O)N2CCC[C@H]2C(=O)N[C@@H](Cc2c[nH]c3ccccc23)C(=O)NCC(=O)N[C@@H](C)C(=O)N[C@@H](C(C)C)C(=O)N1)C(=O)O [IGE073, NLPRCTEGPWGAVCM] (H-NLPRCTEGPWGAVCM-OH; disulfide 5-14; N-terminus and C-terminus assumed) |  | + |  | 65 fold |  |
| CC(C)C[C@@H]1NC(=O)[C@H](CCC(=O)O)NC(=O)[C@H](Cc2ccc(O)cc2)NC(=O)[C@@H]2CSSC[C@H](NC(=O)[C@H](CC(C)C)NC(=O)[C@H](CCC(=O)O)NC(=O)[C@H](Cc3ccc(O)cc3)NC(=O)[C@H](CC(=O)O)NC1=O)C(=O)N1CCC[C@H]1C(=O)N[C@@H](CC(=O)O)C(=O)N[C@@H](C(C)C)C(=O)N[C@H](C(=O)N[C@@H](Cc1ccc(O)cc1)C(=O)N[C@H](C(=O)NCC(=O)N[C@@H](CCCNC(=N)N)C(=O)O)C(C)C)CSSC[C@H](NC(=O)[C@H](CCC(N)=O)NC(=O)[C@@H](N)C(C)C)C(=O)N1CCC[C@H]1C(=O)N[C@@H](Cc1c[nH]cn1)C(=O)N[C@@H](Cc1ccccc1)C(=O)N2 [IGE156] (H-VQCPHFCYELDYELCPDVCYVGR-OH; disulfide 3-19, 7-15 (inferred)) |  |  |  |  | +++ |

Second part, led by results:

| IC50 [1, 3] | Struct. Score [2] | IC50 [1, 4] | fold reduction in inhibition/binding [1] | Compound | Structure Score [2] |
| --- | --- | --- | --- | --- | --- |
|  | + |  | 30 fold | CSCC[C@H](NC(=O)[C@@H]1CSSC[C@H](NC(=O)[C@H](CCCNC(=N)N)NC(=O)[C@@H]2CCCN2C(=O)[C@H](CC(C)C)NC(=O)[C@@H](N)CC(N)=O)C(=O)N[C@@H]([C@@H](C)O)C(=O)N[C@@H](CCC(=O)O)C(=O)NCC(=O)N2CCC[C@H]2C(=O)N[C@@H](Cc2c[nH]c3ccccc23)C(=O)N[C@@H](C)C(=O)N[C@@H](Cc2c[nH]c3ccccc23)C(=O)N[C@@H](C(C)C)C(=O)N1)C(=O)O [IGE074, NLPRCTEGPWAWVCM] (H-NLPRCTEGPWAWVCM-OH; disulfide 5-14) |  |
|  | +++ |  | 256 fold | CSCC[C@H](NC(=O)[C@@H]1CSSC[C@H](NC(=O)[C@H](CCCNC(=N)N)NC(=O)[C@@H]2CCCN2C(=O)[C@H](CC(C)C)NC(=O)[C@@H](N)CC(N)=O)C(=O)N[C@@H]([C@@H](C)O)C(=O)N[C@@H](CCC(=O)O)C(=O)N[C@@H](C)C(=O)N2CCC[C@H]2C(=O)N[C@@H](Cc2c[nH]c3ccccc23)C(=O)NCC(=O)N[C@@H](Cc2c[nH]c3ccccc23)C(=O)N[C@@H](C(C)C)C(=O)N1)C(=O)O [IGE079, NLPRCTEAPWGWVCM] (H-NLPRCTEAPWGWVCM-OH; disulfide 5-14; N-terminus and C-terminus assumed) |  |
| 1.7 µM | +++ |  |  | CSCC[C@H](NC(=O)[C@@H]1CSSC[C@H](NC(=O)[C@H](CCCNC(=N)N)NC(=O)[C@@H]2CCCN2C(=O)[C@H](CC(C)C)NC(=O)[C@H](CC(N)=O)NC(C)=O)C(=O)N[C@@H]([C@@H](C)O)C(=O)N[C@@H](CCC(=O)O)C(=O)NCC(=O)N2CCC[C@H]2C(=O)N[C@@H](Cc2c[nH]c3ccccc23)C(=O)N[C@H](CCC(=O)O)C(=O)N[C@@H](Cc2c[nH]c3ccccc23)C(=O)N[C@@H](C(C)C)C(=O)N1)C(=O)O [IGE114, Ac-NLPRCTEGPWeWVCM] (Ac-NLPRCTEGPW[dE]WVCM-OH; disulfide 5-14) |  |
|  | +++ |  |  | Ac-NLPRCTEG(hyP)WGWVCM [IGE101] |  |
|  | + |  |  | Ac-NLPRCTEGPWGWVCM [IGE108] |  |
